Reference: patent US10829473B2, “Modulators of the cystic fibrosis transmembrane conductance regulator protein and methods of use” (AbbVie Overseas S.Á.R.L., priority 2017, dated 2020)
Read-outs that look alike come from different tables or passages of the source. Marks after values point to notes of the source that are not given here.

Target: T1, F508delCFTR (Homo sapiens, UniProt P13569, DEL508-508)
T1 construct: expressed in transfected cells; host or cells: CFBE41o- human lung derived epithelial cells (CFBE41o-F508delCFTR-HRP), doxycycline-inducible
Experiment: Cell Surface Expression-Horse Radish Peroxidase (CSE-HRP) Assay;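 on EC50 (with co-corrector): co-corrector chromenyl benzoic acid corrector at 2 or 3 µM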
Assay type: cell-based
Details: for Maximum % activity (with co-corrector) / Emax: maximum at any tested concentration; for Emax: read-out: Maximum % activity (without co-corrector)
Experimental: A cellular assay for measuring the F508delCFTR cell surface expression after correction with test compounds either without or with a co-corrector (2 μM of 3-[(2R,4R)-4-({[1-(2,2-difluoro-1,3-benzodioxol-5-yl)cyclopropyl]carbonyl}amino)-7-methoxy-3,4-dihydro-2H-chromen-2-yl]benzoic acid), was developed in human lung derived epithelial cell line (CFBE4lo−) (Veit G et al, (2012) Mol Biol Cell. 23(21): 4188-4202). The development was achieved by expressing the F508delCFTR mutation along with a horseradish peroxidase (HRP) in the fourth exofacial loop, and then measuring the HRP activity using luminescence readout from these cells, CFBE410-F508delCFTR-HRP, that were incubated overnight with the test corrector compounds, either without or with the co-corrector. For this primary assay, the CFBE410-F508delCFTR-HRP cells were plated in 384-well plates (Greiner Bio-one; Cat 781080) at 4,000 cells/well along with 0.5 μg/mL doxycycline to induce the F508delCFTR-HRP expression and further incubated at 37° C., 5% CO2 for 68-72 hours. The test compounds were then added either without or with a co-corrector at the required concentrations and further incubated for 18-24 hours at 33° C. The highest concentration tested was 20 μM or 30 μM (GI-1 to GIII-36) with an 8-point concentration response curve using a 3-fold dilution in both the test compound without or with the co-corrector. Three replicate plates were run to determine one EC50. All plates contained negative controls (dimethyl sulfoxide, DMSO) and positive control (2 μM or 3 μM (GI-1 to GIII-36) of 3-[(2R,4R)-4-({[1-(2,2-difluoro-1,3-benzodioxol-5-yl)cyclopropyl]carbonyl}amino)-7-methoxy-3,4-dihydro-2H-chromen-2-yl]benzoic acid) as well as on-plate concentration response of the positive control. Post incubation, the plates were washed 5× times with Dulbecco's phosphate buffered saline (DPBS), followed by the addition of the HRP substrate, luminol (50 4), and measuring the HRP activity using luminescence readout on EnVision® Multilabel Plate Reader (Perkin Elmer; product number 2104-0010). The raw counts from the experiment were analyzed using Accelrys® Assay Explorer v3.3.
Z′ greater than 0.5 was used as passing quality control criteria for the plates.
The Z′ is defined as: 1−[3*SDPositve Control+3*SDNegative Control/Absolute(MeanPositive Control−MeanNegative Control)] wherein “SD” is standard deviation.
The % activity measured at each of the 8 test concentrations of the test compound added either without or with a co-corrector (2 μM or 3 μM (GI-1 to GIII-36) of 3-[(2R,4R)-4-({[1-(2,2-difluoro-1,3-benzodioxol-5-yl)cyclopropyl]carbonyl}amino)-7-methoxy-3,4-dihydro-2H-chromen-2-yl]benzoic acid) was normalized to the on-plate positive control using the following formulae: % activity (Test compound without co-corrector)=[(test compound without co-corrector response DMSO response)/(positive control response DMSO response)]*100 % activity (Test compound with co-corrector)=[(test compound with co-corrector response DMSO response)/(positive control response DMSO response)]*100
The maximum % activity achieved for the test compound either without or with a co-corrector at any tested concentration is presented in Table 6 along with the respective EC50's calculated using the following general sigmoidal curve with variable Hill slope equation (described as Model 42 in the Accelrys® Assay Explorer v3.3 software): y=(a−d)/(1+(x/c)b)+d
General sigmoidal curve with concentration, response, top, bottom, EC50 and Hill slope. This model describes a sigmoidal curve with an adjustable baseline, a. The equation can be used to fit curves where response is either increasing or decreasing with respect to the independent variable, “x”.
“x” is a concentration of drug under test.
“a” is the maximum response, and “d” is the minimum response
“c” is the inflection point (EGO for the curve. That is, “y” is halfway between the lower and upper asymptotes when x=c.
“b” is the slope-factor or Hill coefficient. […]

[1] = test compound alone, without co-corrector, read-out: EC50 (without co-corrector)
[2] = with co-corrector, read-out: EC50 (with co-corrector)
[3] = test compound with co-corrector
[4] = test compound with co-corrector, read-out: EC50 (with co-corrector)
[5] = test compound without co-corrector
[6] = test compound without co-corrector, read-out: EC50 (without co-corrector)

T1 sequence (P13569 with tags, fused parts or gaps DEL508-508): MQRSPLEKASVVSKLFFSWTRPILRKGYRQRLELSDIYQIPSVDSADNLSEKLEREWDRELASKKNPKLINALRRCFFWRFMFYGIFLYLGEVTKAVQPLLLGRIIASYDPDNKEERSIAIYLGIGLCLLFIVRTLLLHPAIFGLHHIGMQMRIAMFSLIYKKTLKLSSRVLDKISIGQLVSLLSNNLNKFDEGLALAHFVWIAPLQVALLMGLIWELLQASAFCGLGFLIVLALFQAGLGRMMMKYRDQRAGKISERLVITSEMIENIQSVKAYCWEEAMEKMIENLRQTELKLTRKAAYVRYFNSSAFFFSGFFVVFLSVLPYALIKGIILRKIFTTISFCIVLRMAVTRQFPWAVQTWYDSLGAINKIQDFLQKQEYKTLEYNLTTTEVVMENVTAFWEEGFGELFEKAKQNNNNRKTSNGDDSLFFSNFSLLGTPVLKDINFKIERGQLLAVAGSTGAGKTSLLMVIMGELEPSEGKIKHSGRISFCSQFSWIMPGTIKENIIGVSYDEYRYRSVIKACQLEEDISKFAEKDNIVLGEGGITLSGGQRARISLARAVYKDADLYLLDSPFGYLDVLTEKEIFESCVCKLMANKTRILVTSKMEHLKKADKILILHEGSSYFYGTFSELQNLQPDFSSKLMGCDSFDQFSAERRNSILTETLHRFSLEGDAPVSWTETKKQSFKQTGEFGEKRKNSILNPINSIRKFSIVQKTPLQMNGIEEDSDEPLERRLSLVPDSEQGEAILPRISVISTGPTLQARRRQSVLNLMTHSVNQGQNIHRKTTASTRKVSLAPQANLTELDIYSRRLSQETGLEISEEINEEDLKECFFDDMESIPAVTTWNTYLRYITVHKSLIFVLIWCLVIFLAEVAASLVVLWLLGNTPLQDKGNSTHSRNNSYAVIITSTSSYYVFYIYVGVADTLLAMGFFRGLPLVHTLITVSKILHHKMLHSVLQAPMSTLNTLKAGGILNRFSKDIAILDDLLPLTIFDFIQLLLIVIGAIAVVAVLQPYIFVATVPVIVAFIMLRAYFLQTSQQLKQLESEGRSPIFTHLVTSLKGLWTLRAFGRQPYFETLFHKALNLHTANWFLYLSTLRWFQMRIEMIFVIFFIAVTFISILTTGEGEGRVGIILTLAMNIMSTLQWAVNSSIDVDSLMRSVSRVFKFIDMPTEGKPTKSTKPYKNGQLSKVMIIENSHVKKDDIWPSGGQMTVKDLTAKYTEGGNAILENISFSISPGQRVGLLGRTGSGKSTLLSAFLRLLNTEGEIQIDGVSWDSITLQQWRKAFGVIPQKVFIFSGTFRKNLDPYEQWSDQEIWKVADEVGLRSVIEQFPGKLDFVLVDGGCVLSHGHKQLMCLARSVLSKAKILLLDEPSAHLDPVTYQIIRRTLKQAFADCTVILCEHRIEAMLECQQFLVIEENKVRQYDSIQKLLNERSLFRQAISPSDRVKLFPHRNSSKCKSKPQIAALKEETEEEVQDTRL

Row | SMILES | EC50 [1] | Maximum % activity (with co-corrector) (with co-corrector) | EC50 [2] | Emax (without co-corrector) | Maximum % activity (with co-corrector) [3] | EC50 [4] | Emax [5] | EC50 [6] | EC50 (without co-corrector) [5]
1 | COc1ccc(C2CC2)c(C)c1C1(C(=O)NS(=O)(=O)c2cccc3[nH]ncc23)CC1 [II-78] | < 3 µM | +++ (≥350) | < 3 µM | > 150% | – | – | – | – | –
2 | Cc1ccc2c(S(=O)(=O)NC(=O)C3(c4cc(C5CC5)cnc4OC(C)C)CC3)cccc2n1 [Example GI-60, 1-{5-cyclopropyl-2-[(propan-2-yl)oxy]pyridin-3-yl}-N-(2-methylquinoline-5-sulfonyl)cyclopropane-1-carboxamide] | – | – | – | – | +++ (≥350) | < 3 µM | > 150% | < 3 µM | –
3 | COc1ncc(C2CCC2)cc1C1(C(=O)NS(=O)(=O)c2cccc3ccccc23)CC1 [Example I-5, 1-(5-cyclobutyl-2-methoxypyridin-3-yl)-N-(naphthalene-1-sulfonyl)cyclopropane-1-carboxamide] | 3 to 10 µM | +++ (≥350) | < 3 µM | > 150% | – | – | – | – | –
4 | COc1cnc(OCC2CC2)c(C2(C(=O)NS(=O)(=O)c3cccc4ncccc34)CC2)c1 [Example GI-87, 1-[2-(cyclopropylmethoxy)-5-methoxypyridin-3-yl]-N-(quinoline-5-sulfonyl)cyclopropane-1-carboxamide] | – | – | – | – | +++ (≥350) | < 3 µM | > 150% | 3 to 10 µM | –
5 | COc1cnc(OCC2CC2)c(C2(C(=O)NS(=O)(=O)c3cccc4nc(C)ccc34)CC2)c1 [Example GI-92, 1-[2-(cyclopropylmethoxy)-5-methoxypyridin-3-yl]-N-(2-methylquinoline-5-sulfonyl)cyclopropane-1-carboxamide] | – | – | – | – | +++ (≥350) | < 3 µM | > 150% | < 3 µM | –
6 | COC1CCN(c2ncc(C3CCC3)cc2C2(C(=O)NS(=O)(=O)c3cccc4[nH]ccc34)CC2)CC1 [Example GI-57, 1-[5-cyclobutyl-2-(4-methoxypiperidin-1-yl)pyridin-3-yl]-N-(1H-indole-4-sulfonyl)cyclopropane-1-carboxamide] | – | – | – | – | +++ (≥350) | < 3 µM | > 150% | < 3 µM | –
7 | CCc1ccc(OC(F)F)c(C2(C(=O)NS(=O)(=O)c3cccc4ncccc34)CC2)c1 [II-98] | < 3 µM | +++ (≥350) | < 3 µM | > 150% | – | – | – | – | –
8 | Cc1cnc(OC(C)C)c(C2(C(=O)NS(=O)(=O)c3cccc4[nH]ccc34)CC2)c1 [Example GI-59, N-(1H-indole-4-sulfonyl)-1-{5-methyl-2-[(propan-2-yl)oxy]pyridin-3-yl}cyclopropane-1-carboxamide] | – | – | – | – | +++ (≥350) | < 3 µM | > 150% | 3 to 10 µM | –
9 | CC(C)Oc1ccc(C2(C(=O)NS(=O)(=O)c3cccc4ncccc34)CC2)c(N(C)C)n1 [GII-51, 1-{2-(dimethylamino)-6-[(propan-2-yl)oxy]pyridin-3-yl}-N-(quinoline-5-sulfonyl)cyclopropane-1-carboxamide] | – | – | – | – | ++ (≥150 and <350) | 3 to 10 µM | 50 to 150% | – | ++^a
10 | COc1ccc(CO)cc1C1(C(=O)NS(=O)(=O)c2cccc3ncccc23)CC1 [II-48] | > 10 µM | ++ (≥150 and <350) | 3 to 10 µM | < 50% | – | – | – | – | –
11 | COc1nc(C(F)(F)F)ccc1C1(C(=O)NS(=O)(=O)c2cccc3c2CCCN3)CC1 [GII-12, 1-[2-methoxy-6-(trifluoromethyl)pyridin-3-yl]-N-(1,2,3,4-tetrahydroquinoline-5-sulfonyl)cyclopropane-1-carboxamide] | – | – | – | – | +++ (≥350) | 3 to 10 µM | 50 to 150% | 3 to 10 µM | –
12 | Cc1ccc(OC(F)F)c(C2(C(=O)NS(=O)(=O)c3cccc4ncccc34)CC2)c1 [Example I-100, 1-[2-(difluoromethoxy)-5-methylphenyl]-N-(quinoline-5-sulfonyl)cyclopropane-1-carboxamide] | < 3 µM | +++ (≥350) | < 3 µM | > 150% | – | – | – | – | –
13 | Cc1ccc2c(S(=O)(=O)NC(=O)C3(c4cc(C(F)(F)F)cnc4N(C)C)CC3)cccc2n1 [Example I-72, 1-[2-(dimethylamino)-5-(trifluoromethyl)pyridin-3-yl]-N-(2-methylquinoline-5-sulfonyl)cyclopropane-1-carboxamide] | 3 to 10 µM | +++ (≥350) | < 3 µM | > 150% | – | – | – | – | –
14 | COc1ccc(C2CCC2)cc1C1(C(=O)NS(=O)(=O)c2cccc3c2CCCN3)CCC1 [Example I-10, 1-(5-cyclobutyl-2-methoxyphenyl)-N-(1,2,3,4-tetrahydroquinoline-5-sulfonyl)cyclobutane-1-carboxamide] | 3 to 10 µM | +++ (≥350) | < 3 µM | > 150% | – | – | – | – | –
15 | COc1ccc(Br)cc1C1(C(=O)NS(=O)(=O)c2cccc3ccccc23)CC1 [Example I-1, 1-(5-bromo-2-methoxyphenyl)-N-(naphthalene-1-sulfonyl)cyclopropane-1-carboxamide] | < 3 µM | +++ (≥350) | < 3 µM | > 150% | – | – | – | – | –

Results, then the compound that gave them:

Row | EC50 [1] | Maximum % activity (with co-corrector) (with co-corrector) | EC50 [2] | Emax (without co-corrector) | Maximum % activity (with co-corrector) [3] | EC50 [4] | Emax [5] | EC50 [6] | EC50 (without co-corrector) [5] | SMILES
16 | > 10 µM | + (<150) | > 10 µM | < 50% | – | – | – | – | – | COC(=O)c1ccc(S(=O)(=O)NC(=O)C2(c3ccc(Cl)cc3Cl)CC2)o1 [Example III-62, methyl 5-{[1-(2,4-dichlorophenyl)cyclopropane-1-carbonyl]ulfamoyl}furan-2-carboxylate]
17 | 3 to 10 µM | +++ (≥350) | < 3 µM | > 150% | – | – | – | – | – | Cc1ccc(C)c(C2(C(=O)NS(=O)(=O)c3cccc4[nH]ncc34)CC2)c1 [Example III-127, 1-(2,5-dimethylphenyl)-N-(1H-indazole-4-sulfonyl)cyclopropane-1-carboxamide]
18 | > 10 µM | + (<150) | 3 to 10 µM | < 50% | – | – | – | – | – | O=C(CCc1ccccc1)N1CCC(S(=O)(=O)NC(=O)C2(c3ccc(Cl)cc3Cl)CC2)CC1 [Example III-79, 1-(2,4-dichlorophenyl)-N-[1-(3-phenylpropanoyl)piperidine-4-sulfonyl]cyclopropane-1-carboxamide]
19 | – | – | – | – | ++ (≥150 and <350) | > 10 µM | < 50% | > 10 µM | – | O=C(NS(=O)(=O)c1cccc2c1CCCN2)C1(c2ccc(C(F)(F)F)nc2Cl)CC1 [GIII-28]
20 | > 10 µM | + (<150) | > 10 µM | < 50% | – | – | – | – | – | O=C1CCCN1c1ccc(S(=O)(=O)NC(=O)C2(c3ccc(Cl)cc3Cl)CC2)cc1 [Example III-16, 1-(2,4-dichlorophenyl)-N-[4-(2-oxopyrrolidin-1-yl)benzene-1-sulfonyl]cyclopropane-1-carboxamide]
